# According to patent publication US12129237B2, “Substituted diaminocarboxamide and diaminocarbonitrile pyrimidines, compositions thereof, and methods of treatment therewith” (SIGNAL PHARMACEUTICALS, LLC, priority 2011, dated 2024):
# Biological target: T1, JNK1 (Homo sapiens, UniProt P45983)
# T1 construct: purchased Carna Biosciences
# Experiment: JNK1 biochemical assays (one or more of: time resolved fluorescence, Z'-LYTE Cascade, radioactive)
# Conditions: tested in one or more of the JNK1 biochemical assays; read-out: Act. Level (JNK1 biochemical assay IC50 activity level)
# T1 sequence (P45983 whole entry): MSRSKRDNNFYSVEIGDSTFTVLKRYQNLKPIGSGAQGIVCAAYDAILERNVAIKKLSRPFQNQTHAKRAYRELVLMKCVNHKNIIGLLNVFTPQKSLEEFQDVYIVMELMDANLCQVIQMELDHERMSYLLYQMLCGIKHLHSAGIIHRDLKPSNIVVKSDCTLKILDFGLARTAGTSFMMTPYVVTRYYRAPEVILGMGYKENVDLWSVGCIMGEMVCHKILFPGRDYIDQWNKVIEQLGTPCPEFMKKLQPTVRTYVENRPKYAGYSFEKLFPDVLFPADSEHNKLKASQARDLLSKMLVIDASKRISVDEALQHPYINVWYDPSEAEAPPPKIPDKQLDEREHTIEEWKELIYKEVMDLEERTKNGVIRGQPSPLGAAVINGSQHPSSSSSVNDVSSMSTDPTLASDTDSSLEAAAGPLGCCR
row,IC50 [nM],SMILES
1,< 200,"CO[C@H]1CC[C@H](Nc2ncc(C(N)=O)c(N[C@H]3CC[C@H](NC(C)=O)CC3)n2)CC1 [Example A-38, 4-((1r,4r)-4-acetamidocyclohexylamino)-2-((1r,4r)-4-methoxycyclohexylamino)pyrimidine-5-carboxamide]"
2,< 200,"CC(=O)N[C@H]1CC[C@H](Nc2ncc(C(N)=O)c(N[C@@H]3CCC[C@H](O)C3)n2)CC1 [Example A-39, 2-((1r,4R)-4-acetamidocyclohexylamino)-4-((1R,3S)-3-hydroxycyclohexylamino)pyrimidine-5-carboxamide]"
3,< 200,"CO[C@H]1CC[C@H](Nc2ncc(C(N)=O)c(N[C@@H]3CC[C@H](O)C3)n2)CC1 [Example A-46, 4-((1R,3S)-3-hydroxycyclopentylamino)-2-((1r,4R)-4-methoxycyclohexylamino)pyrimidine-5-carboxamide]"
4,< 200,"CO[C@H]1CC[C@H](Nc2ncc(C(N)=O)c(N[C@@H]3CCCNC3)n2)CC1 [Example A-47, 2-((1r,4R)-4-methoxycyclohexylamino)-4-((R)-piperidin-3-ylamino)pyrimidine-5-carboxamide]"
5,800 to 1000,"CO[C@H]1CC[C@H](Nc2ncc(C(N)=O)c(N[C@H]3CCCNC3)n2)CC1 [Example A-48, 2-((1r,4S)-4-methoxycyclohexylamino)-4-((S)-piperidin-3-ylamino)pyrimidine-5-carboxamide]"
6,< 200,"CN[C@H]1CC[C@H](Nc2ncc(C(N)=O)c(N[C@@H]3CCC[C@H](O)C3)n2)CC1 [Example A-49, 4-((1R,3S)-3-hydroxycyclohexylamino)-2-((1r,4R)-4-(methylamino)cyclohexylamino)pyrimidine-5-carboxamide]"
7,< 200,"NC(=O)c1cnc(N[C@@H]2CCCOC2)nc1N[C@@H]1CCC[C@H](O)C1 [Example A-50, 4-((1R,3S)-3-hydroxycyclohexylamino)-2-((R)-tetrahydro-2H-pyran-3-ylamino)pyrimidine-5-carboxamide]"
8,< 200,"CC(C)Nc1ncc(C(N)=O)c(N[C@@H]2CCC[C@H](O)C2)n1 [Example A-51, 4-((1R,3S)-3-hydroxycyclohexylamino)-2-(isopropylamino)pyrimidine-5-carboxamide]"
9,< 200,"NC(=O)c1cnc(N[C@H]2CCCOC2)nc1N[C@@H]1CCC[C@H](O)C1 [Example A-52, 4-((1R,3S)-3-hydroxycyclohexylamino)-2-((S)-tetrahydro-2H-pyran-3-ylamino)pyrimidine-5-carboxamide]"
10,200 to 800,"CO[C@H]1CC[C@H](Nc2ncc(C(N)=O)c(NC3CCOCC3)n2)CC1 [Example A-55, 2-((1r,4r)-4-methoxycyclohexylamino)-4-(tetrahydro-2H-pyran-4-ylamino)pyrimidine-5-carboxamide]"
11,< 200,"CNC(=O)[C@H]1CC[C@H](Nc2ncc(C(N)=O)c(N[C@@H]3CCC[C@H](O)C3)n2)CC1 [Example A-56, 4-((1R,3S)-3-hydroxycyclohexylamino)-2-((1r,4R)-4-(methylcarbamoyl)cyclohexylamino)pyrimidine-5-carboxamide]"
12,< 200,"NC(=O)c1cnc(NC2CCOCC2)nc1N[C@@H]1CCC[C@H](O)C1 [Example A-57, 4-((1R,3S)-3-hydroxycyclohexylamino)-2-(tetrahydro-2H-pyran-4-ylamino)pyrimidine-5-carboxamide]"
13,< 200,"CCO[C@H]1CC[C@H](Nc2ncc(C(N)=O)c(NC3CCC[C@H](O)C3)n2)CC1 (stereo partly drawn) [Example A-58, 2-((1r,4R)-4-ethoxycyclohexylamino)-4-((1R,3S)-3-hydroxycyclohexylamino)pyrimidine-5-carboxamide]"
14,< 200,"CCO[C@H]1CC[C@H](Nc2ncc(C(N)=O)c(N[C@H]3CCC[C@@H](O)C3)n2)CC1 [Example A-59, 2-((1r,4S)-4-ethoxycyclohexylamino)-4-((1S,3R)-3-hydroxycyclohexylamino)pyrimidine-5-carboxamide]"
15,< 200,"CCO[C@H]1CC[C@H](Nc2ncc(C(N)=O)c(N[C@H]3CCCOC3)n2)CC1 [Example A-60, 2-((1r,4S)-4-ethoxycyclohexylamino)-4-((S)-tetrahydro-2H-pyran-3-ylamino)pyrimidine-5-carboxamide]"
16,800 to 1000,"CCO[C@H]1CC[C@@H](Nc2ncc(C(N)=O)c(N[C@H]3CCC[C@@H]3O)n2)CC1 [Example A-62, 2-((1s,4R)-4-ethoxycyclohexylamino)-4-((1S,2S)-2-hydroxycyclopentylamino)pyrimidine-5-carboxamide]"
17,200 to 800,"CCO[C@H]1CC[C@H](Nc2ncc(C(N)=O)c(N[C@H]3CCC[C@H]3O)n2)CC1 [Example A-63, 2-((1r,4S)-4-ethoxycyclohexylamino)-4-((1S,2R)-2-hydroxycyclopentylamino)pyrimidine-5-carboxamide]"
18,200 to 800,"CCO[C@H]1CC[C@H](Nc2ncc(C(N)=O)c(N[C@H]3CCC[C@@H]3O)n2)C1 [Example A-64, 2-((1S,3S)-3-ethoxycyclopentylamino)-4-((1S,2S)-2-hydroxycyclopentylamino)pyrimidine-5-carboxamide]"

row,IC50 [nM],SMILES
1,< 200,"CO[C@H]1CC[C@H](Nc2ncc(C(N)=O)c(N[C@@H]3CCC[C@H]3O)n2)CC1 [Example A-65, 4-((1R,2R)-2-hydroxycyclopentylamino)-2-((1r,4R)-4-methoxycyclohexylamino)pyrimidine-5-carboxamide]"
2,< 200,"CCO[C@H]1CC[C@H](Nc2ncc(C(N)=O)c(NC3CCC[C@H]3O)n2)CC1 (stereo partly drawn) [Example A-66, 2-((1r,4R)-4-ethoxycyclohexylamino)-4-((1R,2R)-2-hydroxycyclopentylamino)pyrimidine-5-carboxamide]"
3,< 200,"CCO[C@H]1CC[C@H](Nc2ncc(C(N)=O)c(NC[C@@H](C)O)n2)CC1 [Example A-67, 2-((1r,4R)-4-ethoxycyclohexylamino)-4-((R)-2-hydroxypropylamino)pyrimidine-5-carboxamide]"
4,< 200,"CC(C)CC(=O)N1CCC(Nc2ncc(C(N)=O)c(N[C@H]3C[C@@H](O)C3)n2)CC1 [Example A-68, 4-((1s,3s)-3-hydroxycyclobutylamino)-2-(1-(3-methylbutanoyl)piperidin-4-ylamino)pyrimidine-5-carboxamide]"
5,< 200,"CO[C@H]1CC[C@H](Nc2ncc(C(N)=O)c(N[C@H]3CC[C@@](C)(O)CC3)n2)CC1 [Example A-69, 4-((1s,4s)-4-hydroxy-4-methylcyclohexylamino)-2-((1r,4r)-4-methoxycyclohexylamino)pyrimidine-5-carboxamide]"
6,200 to 800,"NC(=O)c1cnc(N[C@H]2CC[C@](O)(c3ccccc3)CC2)nc1N[C@H]1CCC[C@@H]1O [Example A-70, 2-((1s,4R)-4-hydroxy-4-phenylcyclohexylamino)-4-((1S,2S)-2-hydroxycyclopentylamino)pyrimidine-5-carboxamide]"
7,< 200,"CCO[C@H]1CC[C@H](Nc2ncc(C(N)=O)c(NCCO)n2)CC1 [Example A-71, 2-((1r,4r)-4-ethoxycyclohexylamino)-4-(2-hydroxyethylamino)pyrimidine-5-carboxamide]"
8,< 200,"CCO[C@H]1CC[C@H](Nc2ncc(C(N)=O)c(N[C@@H]3CCCOC3)n2)CC1 [Example A-72, 2-((1r,4R)-4-ethoxycyclohexylamino)-4-((R)-tetrahydro-2H-pyran-3-ylamino)pyrimidine-5-carboxamide]"
9,< 200,"CCO[C@H]1CCC[C@@H]1Nc1nc(N[C@H]2CC[C@H](OCC)CC2)ncc1C(N)=O [Example A-73, 2-((1r,4S)-4-ethoxycyclohexylamino)-4-((1S,2S)-2-ethoxycyclopentylamino)pyrimidine-5-carboxamide]"
10,200 to 800,"CCO[C@H]1C[C@H](Nc2ncc(C(N)=O)c(N[C@H]3CCC[C@@H]3O)n2)C1 [Example A-74, 2-((1r,3S)-3-ethoxycyclobutylamino)-4-((1S,2S)-2-hydroxycyclopentylamino)pyrimidine-5-carboxamide]"
11,< 200,"NC(=O)c1cnc(N[C@H]2CC[C@H](OCCF)CC2)nc1N[C@H]1CCC[C@@H]1O [Example A-75, 2-((1r,4S)-4-(2-fluoroethoxy)cyclohexylamino)-4-((1S,2S)-2-hydroxycyclopentylamino)pyrimidine-5-carboxamide]"
12,200 to 800,"CCO[C@@H]1CC[C@@H](Nc2ncc(C(N)=O)c(N[C@H]3CCC[C@@H]3O)n2)C1 [Example A-76, 2-((1R,3R)-3-ethoxycyclopentylamino)-4-((1S,2S)-2-hydroxycyclopentylamino)pyrimidine-5-carboxamide]"
13,< 200,"CCO[C@H]1CC[C@H](Nc2ncc(C(N)=O)c(N[C@H]3CCCC[C@@H]3O)n2)CC1 [Example A-77, 2-((1r,4S)-4-ethoxycyclohexylamino)-4-((1S,2S)-2-hydroxycyclohexylamino)pyrimidine-5-carboxamide]"
14,< 200,"CO[C@H]1CC[C@H](Nc2ncc(C(N)=O)c(NC3(CO)CCCC3)n2)CC1 [Example A-78, 4-(1-(hydroxymethyl)cyclopentylamino)-2-((1r,4r)-4-methoxycyclohexylamino)pyrimidine-5-carboxamide]"
15,< 200,"CC1(Nc2nc(N[C@H]3CC[C@H](O)CC3)ncc2C(N)=O)CCOCC1 [Example A-79, 2-((1r,4r)-4-hydroxycyclohexylamino)-4-(4-methyltetrahydro-2H-pyran-4-ylamino)pyrimidine-5-carboxamide]"
16,< 200,"CO[C@H]1CC[C@H](Nc2ncc(C(N)=O)c(N[C@H]3CC[C@@H](O)C3)n2)CC1 [Example A-80, 4-((1S,3R)-3-hydroxycyclopentylamino)-2-((1r,4S)-4-methoxycyclohexylamino)pyrimidine-5-carboxamide]"
17,< 200,"CO[C@H]1CC[C@@H](Nc2nc(N[C@H]3CC[C@H](O)C3)ncc2C(N)=O)CC1 [Example A-81, 2-((1S,3S)-3-hydroxycyclopentylamino)-4-((1s,4R)-4-methoxycyclohexylamino)pyrimidine-5-carboxamide]"
18,200 to 800,"COC[C@H]1CC[C@H](Nc2ncc(C(N)=O)c(NC3CCN(C(C)=O)CC3)n2)CC1 [Example A-82, 4-(1-acetylpiperidin-4-ylamino)-2-((1r,4r)-4-(methoxymethyl)cyclohexylamino)pyrimidine-5-carboxamide]"
